Reference: patent US20080207496A1, “ORGANIC COMPOUND” (priority 2003, published 2008)
Where two headings read alike, the source gives them in different places.

Experiments:
[1] = test system: peripheral blood mononuclear cells; assay: Intracellular calcium kinetics after PHA, flow cytometry (fluo-4/Fura-red); format: cell-based, human; details: PHA 20 μg/ml; at micromolar concentrations
Protocol: Intracellular Calcium Kinetics. Human PBMC's are resuspended in calcium-free PBS and loaded with the calcium indicator dyes Fura-red and fluo-4 for 1 hour at room temperature shielded from light. […] At the end of dye loading, cells are washed in PBS and resuspended in RPMI 1640 and placed in growth conditions. One million cells of each sample are then analyzed by a flow cytometer and the mean FL-1 and FL-3 channels recorded every 8 seconds for a total of 240 seconds. At least eight thousand events are acquired during each eight-second interval. PHA (20 μg/ml) was added to activate T cells at time 0 seconds. The ratio FL-1/FL-3 is directly related to the intracellular calcium concentration and is expressed in arbitrary units (AU).

[2] = Phase I and II studies in patients with advanced cancer; format: in vivo, human; details: oral doses at 150 to 300 mg/day
[3] = test system: Peripheral blood mononuclear cells (PBMCs); details: ConA +
[4] = test system: IL-2 production by CD3+ T cells; details: at concentrations less than 0.5 mM
[5] = test system: IFN-gamma production by CD3+ T cells; details: at concentrations less than 0.5 mM
[6] = molecular target: conventional protein kinase C isoform α (Homo sapiens, UniProt P17252); details: cited from earlier work
[7] = molecular target: conventional protein kinase C isoform β (Homo sapiens, UniProt P05771); details: cited from earlier work
[8] = molecular target: conventional protein kinase C isoform γ (Homo sapiens, UniProt P05129); details: cited from earlier work
[9] = molecular target: calcium-independent protein kinase C isoform δ (Homo sapiens, UniProt Q05655); details: cited from earlier work
[10] = molecular target: T1, calcium-independent protein kinase C isoform ε (Homo sapiens, UniProt Q02156); details: cited from earlier work
T1 sequence (Q02156 1-737): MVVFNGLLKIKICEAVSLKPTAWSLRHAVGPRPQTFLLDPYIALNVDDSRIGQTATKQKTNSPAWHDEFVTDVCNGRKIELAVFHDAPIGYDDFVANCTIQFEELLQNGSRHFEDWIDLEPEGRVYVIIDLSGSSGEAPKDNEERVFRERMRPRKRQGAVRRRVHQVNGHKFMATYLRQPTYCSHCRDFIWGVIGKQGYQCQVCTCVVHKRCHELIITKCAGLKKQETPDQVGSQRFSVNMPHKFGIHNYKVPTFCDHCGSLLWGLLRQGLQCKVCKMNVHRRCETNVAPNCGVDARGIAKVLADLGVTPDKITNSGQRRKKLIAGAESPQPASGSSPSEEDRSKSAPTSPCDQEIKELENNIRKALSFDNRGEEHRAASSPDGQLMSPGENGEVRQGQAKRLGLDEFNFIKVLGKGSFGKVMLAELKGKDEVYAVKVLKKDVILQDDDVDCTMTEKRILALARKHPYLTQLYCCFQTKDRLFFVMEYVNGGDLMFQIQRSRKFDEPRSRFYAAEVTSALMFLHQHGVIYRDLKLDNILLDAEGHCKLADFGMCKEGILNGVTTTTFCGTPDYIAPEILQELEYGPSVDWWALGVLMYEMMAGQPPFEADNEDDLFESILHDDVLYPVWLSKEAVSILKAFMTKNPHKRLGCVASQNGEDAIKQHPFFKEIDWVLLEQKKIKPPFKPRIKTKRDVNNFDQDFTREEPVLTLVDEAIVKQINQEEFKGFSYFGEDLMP

[11] = molecular target: calcium-independent protein kinase C isoform η (Homo sapiens, UniProt P24723); details: cited from earlier work
Sequence of calcium-independent protein kinase C isoform η (P24723 whole entry, canonical isoform): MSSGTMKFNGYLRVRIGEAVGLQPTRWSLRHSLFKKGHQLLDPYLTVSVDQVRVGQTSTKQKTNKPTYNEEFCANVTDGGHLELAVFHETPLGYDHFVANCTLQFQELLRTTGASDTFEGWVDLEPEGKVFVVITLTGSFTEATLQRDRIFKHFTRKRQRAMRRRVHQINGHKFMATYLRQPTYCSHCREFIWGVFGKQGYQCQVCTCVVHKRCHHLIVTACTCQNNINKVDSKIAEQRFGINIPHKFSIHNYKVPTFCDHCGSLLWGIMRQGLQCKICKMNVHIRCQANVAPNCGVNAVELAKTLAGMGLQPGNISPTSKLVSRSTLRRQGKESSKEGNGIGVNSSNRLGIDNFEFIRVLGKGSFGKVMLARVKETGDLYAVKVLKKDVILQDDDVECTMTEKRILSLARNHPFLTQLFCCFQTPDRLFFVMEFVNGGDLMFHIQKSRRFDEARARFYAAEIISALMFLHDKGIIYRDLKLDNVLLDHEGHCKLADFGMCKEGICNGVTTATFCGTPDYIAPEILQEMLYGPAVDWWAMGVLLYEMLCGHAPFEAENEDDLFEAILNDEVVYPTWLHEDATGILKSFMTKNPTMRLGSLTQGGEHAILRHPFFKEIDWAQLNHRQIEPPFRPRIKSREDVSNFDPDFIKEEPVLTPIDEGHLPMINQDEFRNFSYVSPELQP

Sequence of conventional protein kinase C isoform β (P05771 whole entry, canonical isoform): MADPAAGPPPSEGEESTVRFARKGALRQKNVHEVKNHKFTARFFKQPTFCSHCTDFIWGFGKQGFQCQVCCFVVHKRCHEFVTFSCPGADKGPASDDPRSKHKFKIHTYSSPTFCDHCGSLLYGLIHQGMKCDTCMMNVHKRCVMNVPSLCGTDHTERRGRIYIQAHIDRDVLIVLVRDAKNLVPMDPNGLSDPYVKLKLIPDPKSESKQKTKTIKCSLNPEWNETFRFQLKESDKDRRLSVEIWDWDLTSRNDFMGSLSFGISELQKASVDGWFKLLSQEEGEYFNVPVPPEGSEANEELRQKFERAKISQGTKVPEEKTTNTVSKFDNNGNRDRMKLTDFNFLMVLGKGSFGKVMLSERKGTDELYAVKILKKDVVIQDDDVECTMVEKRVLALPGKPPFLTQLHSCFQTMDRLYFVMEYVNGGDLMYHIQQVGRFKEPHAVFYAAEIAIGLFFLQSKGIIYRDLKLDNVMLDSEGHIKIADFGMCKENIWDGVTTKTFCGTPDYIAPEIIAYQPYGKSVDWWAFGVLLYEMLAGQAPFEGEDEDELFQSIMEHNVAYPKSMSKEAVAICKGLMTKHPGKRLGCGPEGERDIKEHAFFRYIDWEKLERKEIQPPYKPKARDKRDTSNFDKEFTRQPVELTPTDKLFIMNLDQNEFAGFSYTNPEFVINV
Sequence of calcium-independent protein kinase C isoform δ (Q05655 whole entry, canonical isoform): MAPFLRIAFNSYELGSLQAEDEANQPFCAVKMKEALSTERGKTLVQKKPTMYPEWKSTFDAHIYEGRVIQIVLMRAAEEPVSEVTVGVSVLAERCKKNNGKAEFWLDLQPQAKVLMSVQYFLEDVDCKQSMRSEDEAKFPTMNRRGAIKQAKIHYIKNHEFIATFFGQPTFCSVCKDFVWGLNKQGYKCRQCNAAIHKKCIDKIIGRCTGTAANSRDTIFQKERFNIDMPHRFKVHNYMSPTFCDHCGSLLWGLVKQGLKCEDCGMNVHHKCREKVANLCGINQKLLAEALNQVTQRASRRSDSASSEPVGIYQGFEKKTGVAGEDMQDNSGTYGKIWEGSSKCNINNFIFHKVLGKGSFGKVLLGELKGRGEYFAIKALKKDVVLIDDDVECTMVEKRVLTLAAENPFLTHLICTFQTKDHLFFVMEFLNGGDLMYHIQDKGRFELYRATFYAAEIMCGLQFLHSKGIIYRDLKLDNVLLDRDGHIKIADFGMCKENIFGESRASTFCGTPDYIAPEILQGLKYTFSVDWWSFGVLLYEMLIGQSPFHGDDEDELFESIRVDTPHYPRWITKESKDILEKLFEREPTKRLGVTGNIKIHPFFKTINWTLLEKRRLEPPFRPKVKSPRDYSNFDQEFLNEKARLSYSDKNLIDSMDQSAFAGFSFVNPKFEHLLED

SMILES: CO[C@@H]1[C@H](N(C)C(=O)c2ccccc2)C[C@H]2O[C@]1(C)n1c3ccccc3c3c4c(c5c6ccccc6n2c5c31)C(=O)NC4 [Compound I, midostaurin]
- intracellular calcium response to PHA [1]: blunts
- serum levels [2]: micromolar range
- cpm (mean 3H-thymidine incorporation) ([3]; C I 0.05 mM with CsA 50 ng/ml): 8472 cpm
- cpm (mean 3H-thymidine incorporation) ([3]; C I 0.05 mM with CsA 100 ng/ml): 7307 cpm
- cpm (mean 3H-thymidine incorporation) ([3]; C I 0.05 mM, no CsA): 11944 cpm
- cpm (mean 3H-thymidine incorporation) ([3]; C I 0.1 mM with CsA 50 ng/ml): 5260 cpm
- cpm (mean 3H-thymidine incorporation) ([3]; C I 0.1 mM with CsA 100 ng/ml): 3162 cpm
- cpm (mean 3H-thymidine incorporation) ([3]; C I 0.1 mM, no CsA): 9005 cpm
- cpm (mean 3H-thymidine incorporation) ([3]; C I 1 mM with CsA 50 ng/ml): 1082 cpm
- cpm (mean 3H-thymidine incorporation) ([3]; C I 1 mM with CsA 100 ng/ml): 642 cpm
- cpm (mean 3H-thymidine incorporation) ([3]; C I 1 mM, no CsA): 2556 cpm
- effect on IL-2 production by CD3+ T cells [4]: slightly increases
- effect on IFN-gamma production by CD3+ T cells [5]: slightly increases
- inhibition of protein kinase C isoform α (inhibitory concentration) [6]: nanomolar concentrations
- inhibition of protein kinase C isoform β (inhibitory concentration) [7]: nanomolar concentrations
- inhibition of protein kinase C isoform γ (inhibitory concentration) [8]: nanomolar concentrations
- inhibition of protein kinase C isoform δ (inhibitory concentration) [9]: nanomolar concentrations
- inhibition of protein kinase C isoform ε (inhibitory concentration) [10]: nanomolar concentrations
- inhibition of protein kinase C isoform η (inhibitory concentration) [11]: nanomolar concentrations
